# Active and inactive are the calls of the source. The calls are words filed in the database; no cut-off is given here.
# Columns and labels:
# Enterococcus faecium [1] = test: Antibacterial activity against Enterococcus faecium 10067 assessed as inhibition of bacterial growth incubated for 16 to 20 hrs; format: functional; settings: time 16-20 hrs
# Klebsiella pneumoniae [2] = test: Bactericidal activity against Klebsiella pneumoniae BAA 2473 assessed as inhibition of bacterial growth in presence of 1 microg/ml of chymotrypsin (reference value: 1.56 to 3.13 microM); format: functional
# Cell membrane [3] = test: Induction of cell membrane depolarization in Klebsiella pneumoniae BAA 2473 assessed as increase in fluorescence intensity at 1 times MIC incubated for 40 mins by DiBAC4(3) fluorescent dye based assay; format: cell membranes
# Pseudomonas aeruginosa [4] = test: Antibacterial activity against Pseudomonas aeruginosa 19660 assessed as inhibition of bacterial growth incubated for 16 to 20 hrs in presence of human serum; format: functional; settings: time 16-20 hrs
# Klebsiella pneumoniae [5] = test: Bactericidal activity against Klebsiella pneumoniae BAA 2473 assessed as inhibition of bacterial growth in presence of 0.1 microg/ml of proteinase K (reference value: 1.56 to 3.13 microM); format: functional
# Cell membrane [6] = test: Induction of outer cell membrane permeabilization in Klebsiella pneumoniae BAA 2473 assessed as increase in fluorescence intensity by NPN uptake assay; format: cell membranes
# Klebsiella pneumoniae [7] = test: Antibacterial activity against Klebsiella pneumoniae BAA 2473 assessed as inhibition of bacterial growth in presence of 0.1 microg/ml of proteinase K (reference value: 1.56 to 3.13 microM); format: functional
# Rhizopus arrhizus [8] = test: Fungicidal activity against Rhizopus oryzae 34550 assessed as inhibition of fungal growth incubated for 72 hrs; format: functional
# Klebsiella pneumoniae [9] = test: Antibacterial activity against Klebsiella pneumoniae BAA 2473 assessed as inhibition of bacterial growth in presence of 1 microg/ml of proteinase K (reference value: 1.56 to 3.13 microM); format: functional
# Enterococcus faecium [10] = test: Bactericidal activity against Enterococcus faecium 10067 assessed as inhibition of bacterial growth incubated for 16 to 20 hrs; format: functional; settings: time 16-20 hrs
# Pseudomonas aeruginosa [11] = test: Bactericidal activity against Pseudomonas aeruginosa 19660 assessed as inhibition of bacterial growth incubated for 16 to 20 hrs in presence of human serum; format: functional; settings: time 16-20 hrs
# Klebsiella oxytoca = test: Antibacterial activity against Klebsiella oxytoca 13985 assessed as inhibition of bacterial growth incubated for 16 to 20 hrs in presence of human serum; format: functional; settings: time 16-20 hrs
# Acinetobacter baumannii [12] = test: Antibacterial activity against Acinetobacter baumannii 10591 assessed as inhibition of bacterial growth incubated for 16 to 20 hrs in presence of human serum; format: functional; settings: time 16-20 hrs
# Klebsiella pneumoniae [13] = test: Antibacterial activity against Klebsiella pneumoniae BAA 2473 assessed as inhibition of bacterial growth in presence of 1 microg/ml of chymotrypsin (reference value: 1.56 to 3.13 microM); format: functional
# Salmonella typhimurium [14] = test: Bactericidal activity against Salmonella typhimurium DT104 assessed as inhibition of bacterial growth incubated for 16 to 20 hrs; format: functional, Salmonella enterica subsp. enterica serovar Typhimurium; settings: Salmonella enterica, time 16-20 hrs
# Enterococcus faecalis [15] = test: Antibacterial activity against Enterococcus faecalis 10066 assessed as inhibition of bacterial growth incubated for 16 to 20 hrs; format: functional; settings: time 16-20 hrs
# Klebsiella pneumoniae [16] = test: Antibacterial activity against Klebsiella pneumoniae BAA 2473 assessed as inhibition of bacterial growth in presence of 10 microg/ml of proteinase K (reference value: 1.56 to 3.13 microM); format: functional
# Acinetobacter baumannii [17] = test: Bactericidal activity against Acinetobacter baumannii 10591 assessed as inhibition of bacterial growth incubated for 16 to 20 hrs; format: functional; settings: time 16-20 hrs
# Lipopolysaccharide (LPS) = test: Displacement of BODIPY-TR-cadaverine from Klebsiella pneumoniae BAA 2473 lipopolysaccharide (LPS) assessed as increase in fluorescence intensity at 3.125 uM by fluorescence spectrophotometric analysis; format: subcellular
# Salmonella enterica [18] = test: Antibacterial activity against Salmonella enterica 15455 assessed as inhibition of bacterial growth incubated for 16 to 20 hrs; format: functional; settings: time 16-20 hrs
# Klebsiella pneumoniae [19] = test: Bactericidal activity against Klebsiella pneumoniae BAA 2473 assessed as inhibition of bacterial growth in presence of 0.1 microg/ml of chymotrypsin (reference value: 1.56 to 3.13 microM); format: functional
# Vibrio vulnificus = test: Antibacterial activity against Vibrio vulnificus 204 assessed as inhibition of bacterial growth incubated for 16 to 20 hrs; format: functional; settings: time 16-20 hrs
# Klebsiella pneumoniae [20] = test: Antibacterial activity against Klebsiella pneumoniae BAA 2473 assessed as inhibition of bacterial growth in presence of 1 microg/ml of trypsin (reference value: 1.56 to 3.13 microM); format: functional
# Acinetobacter baumannii [21] = test: Antibacterial activity against Acinetobacter baumannii 10591 assessed as inhibition of bacterial growth incubated for 16 to 20 hrs; format: functional; settings: time 16-20 hrs
# Klebsiella pneumoniae [22] = test: Bactericidal activity against Klebsiella pneumoniae BAA 2473 assessed as inhibition of bacterial growth in presence of 10 microg/ml of proteinase K (reference value: 1.56 to 3.13 microM); format: functional
# Rhizopus arrhizus [23] = test: Fungicidal activity against Rhizopus oryzae 34550 assessed as inhibition of fungal growth incubated for 16 to 20 hrs in presence of human serum; format: functional; settings: time 16-20 hrs
# Rhizopus arrhizus [24] = test: Antifungal activity against Rhizopus oryzae 34550 assessed as inhibition of fungal growth incubated for 16 to 20 hrs; format: functional; settings: time 16-20 hrs
# Escherichia coli [25] = test: Bactericidal activity against Escherichia coli 10675 assessed as inhibition of bacterial growth incubated for 16 to 20 hrs in presence of human serum; format: functional; settings: time 16-20 hrs
# Enterococcus faecium [26] = test: Antibacterial activity against Enterococcus faecium 10067 assessed as inhibition of bacterial growth incubated for 16 to 20 hrs in presence of human serum; format: functional; settings: time 16-20 hrs
# Klebsiella pneumoniae [27] = test: Antibacterial activity against Klebsiella pneumoniae BAA 2473 assessed as inhibition of bacterial growth in presence of 0.1 microg/ml of chymotrypsin (reference value: 1.56 to 3.13 microM); format: functional
# Klebsiella pneumoniae [28] = test: Bactericidal activity against Klebsiella pneumoniae BAA 2473 assessed as inhibition of bacterial growth in presence of 10 microg/ml of trypsin (reference value: 1.56 to 3.13 microM); format: functional
# Klebsiella pneumoniae [29] = test: Bactericidal activity against Klebsiella pneumoniae BAA 2473 assessed as inhibition of bacterial growth in presence of 0.1 microg/ml of pepsin (reference value: 1.56 to 3.13 microM); format: functional
# Enterococcus faecalis [30] = test: Bactericidal activity against Enterococcus faecalis 10066 assessed as inhibition of bacterial growth incubated for 16 to 20 hrs; format: functional; settings: time 16-20 hrs
# Klebsiella pneumoniae [31] = test: Induction of morphological changes in Klebsiella pneumoniae BAA 2473 assessed as membrane deformations with protruding granules at by transmission electron microscopy analysis; format: functional, organism-based
# Escherichia coli [32] = test: Antibacterial activity against Escherichia coli 10675 assessed as inhibition of bacterial growth incubated for 16 to 20 hrs in presence of human serum; format: functional; settings: time 16-20 hrs
# Salmonella typhimurium [33] = test: Antibacterial activity against Salmonella typhimurium DT104 assessed as inhibition of bacterial growth incubated for 16 to 20 hrs in presence of human serum; format: functional, Salmonella enterica subsp. enterica serovar Typhimurium; settings: Salmonella enterica, time 16-20 hrs
# Klebsiella pneumoniae [34] = test: Bactericidal activity against Klebsiella pneumoniae BAA 2473 assessed as inhibition of bacterial growth incubated for 16 to 20 hrs; format: functional; settings: time 16-20 hrs
# Klebsiella pneumoniae [35] = test: Bactericidal activity against Klebsiella pneumoniae 10692 assessed as inhibition of bacterial growth incubated for 16 to 20 hrs; format: functional; settings: time 16-20 hrs
# Klebsiella pneumoniae [36] = test: Bactericidal activity against Klebsiella pneumoniae BAA 2473 assessed as inhibition of bacterial growth in presence of 10 microg/ml of pepsin (reference value: 1.56 to 3.13 microM); format: functional
# Salmonella enterica [37] = test: Bactericidal activity against Salmonella enterica 15455 assessed as inhibition of bacterial growth incubated for 16 to 20 hrs in presence of human serum; format: functional; settings: time 16-20 hrs
compound,measurement,setting,value
CC(C)C[C@H](NC(=O)[C@@H](C)NC(=O)[C@@H](CCCCN)NC(=O)[C@H](CC(C)C)NC(=O)[C@@H](CC(C)C)NC(=O)[C@@H](CCCCN)NC(=O)[C@H](CCCCN)NC(=O)[C@@H](CC(C)C)NC(=O)[C@H](N)Cc1ccccc1)C(=O)N[C@H](Cc1ccccc1)C(=O)N[C@H](CO)C(=O)N[C@@H](C)C(=O)N1CCC[C@@H]1C(=O)N[C@H](CCCCN)C(=O)N[C@@H](C)C(=O)N[C@H](CC(C)C)C(=O)N[C@H](CCCCN)C(=O)N[C@@H](CCCNC(=N)N)C(=O)N[C@H](CC(C)C)C(=O)N[C@H](CC(C)C)C(=O)N[C@@H](CCCNC(=N)N)C(=O)N[C@H](CCCNC(=N)N)C(=O)N[C@H](CCCNC(=N)N)C(=O)N[C@@H](CCCNC(=N)N)C(=O)N[C@@H](CCCNC(=N)N)C(=O)O,MIC,Enterococcus faecium [1],3.13 µM
same,MBC,Klebsiella pneumoniae [2],0.78 µM
same,Activity,Cell membrane [3],Active
same,MIC,Pseudomonas aeruginosa [4],6.25 µM
same,MBC,Klebsiella pneumoniae [5],1.56 µM
same,Activity,Cell membrane [6],Active
same,MIC,Klebsiella pneumoniae [7],0.78 µM
same,MFC,Rhizopus arrhizus [8],1.56 µM
same,MIC,Klebsiella pneumoniae [9],0.78 µM
same,MBC,Enterococcus faecium [10],12.5 µM
same,MBC,Pseudomonas aeruginosa [11],3.13 µM
same,MIC,Klebsiella oxytoca,6.25 µM
same,MIC,Acinetobacter baumannii [12],1.56 µM
same,MIC,Klebsiella pneumoniae [13],0.78 µM
same,MBC,Salmonella typhimurium [14],3.13 µM
same,MIC,Enterococcus faecalis [15],> 25 µM
same,MIC,Klebsiella pneumoniae [16],0.78 µM
same,MBC,Acinetobacter baumannii [17],3.13 µM
same,Activity,Lipopolysaccharide (LPS),100%
same,MIC,Salmonella enterica [18],3.13 µM
same,MBC,Klebsiella pneumoniae [19],0.78 µM
same,MIC,Vibrio vulnificus,6.25 µM
same,MIC,Klebsiella pneumoniae [20],0.78 µM
same,MIC,Acinetobacter baumannii [21],3.13 µM
same,MBC,Klebsiella pneumoniae [22],1.56 µM
same,MFC,Rhizopus arrhizus [23],100 µM
same,MIC,Rhizopus arrhizus [24],1.56 µM
same,MBC,Escherichia coli [25],0.78 µM
same,MIC,Enterococcus faecium [26],100 µM
same,MIC,Klebsiella pneumoniae [27],0.78 µM
same,MBC,Klebsiella pneumoniae [28],1.56 µM
same,MBC,Klebsiella pneumoniae [29],1.56 µM
same,MBC,Enterococcus faecalis [30],12.5 µM
same,Activity,Klebsiella pneumoniae [31],Active
same,MIC,Escherichia coli [32],0.78 µM
same,MIC,Salmonella typhimurium [33],6.25 µM
same,MBC,Klebsiella pneumoniae [34],25 µM
same,MBC,Klebsiella pneumoniae [35],25 µM
same,MBC,Klebsiella pneumoniae [36],1.56 µM
same,MBC,Salmonella enterica [37],0.78 µM

# From ChEMBL document CHEMBL5505958, “Optimization of sequence and chiral content enhances therapeutic potential of tilapia piscidin peptides” (Eur J Med Chem, 2024)
